Laboratory results published in article PMC11822212, “High-throughput screening identifies Aurora kinase B as a critical therapeutic target for Merkel cell carcinoma” (Nature Communications, 2025).
Like-named read-outs stand apart in the source and are kept apart here.

What was measured:
MCC13 cells (VN-MCC) = assay: qHTS cell viability (CellTiter-Glo, 72 h; primary and follow-up small molecule screen); assay type: cell-based, human
MCC26 cells (VN-MCC) = assay: as above; assay type: cell-based, human
UISO cells (VN-MCC) = assay: as above; assay type: cell-based, human
WAGA cells (VP-MCC) = assay: as above; assay type: cell-based, human
MKL-1 cells (VP-MCC) = assay: as above; assay type: cell-based, human
MKL-2 cells (VP-MCC) = assay: as above; assay type: cell-based, human
HACAT cells = assay: qHTS cell viability (CellTiter-Glo, 72 h; primary screen), control cell line; assay type: cell-based, human
HEK293T cells = assay: as above; assay type: cell-based, human
NIH-3T3 cells = assay: as above; assay type: cell-based, mouse
CRL-7250 cells = assay: as above; assay type: cell-based
[1] = test system: MCC cell lines (WAGA, MKL-1, MKL-2, MCC13, MCC26, UISO); assay: qHTS cell viability, all six MCC cell lines as a group (mean AUC, MCC.avg); assay type: cell-based, human
[2] = test system: VP-MCC cell lines (WAGA, MKL-1, MKL-2); assay: qHTS cell viability, VP-MCC cell lines as a group (mean AUC, VP.MCC.avg); assay type: cell-based, human
[3] = test system: VN-MCC cell lines (MCC13, MCC26, UISO); assay: qHTS cell viability, VN-MCC cell lines as a group (mean AUC, VN.MCC.avg); assay type: cell-based, human
[4] = test system: control cell lines (HACAT, HEK293T, CRL-7250, NIH-3T3); assay: qHTS cell viability, control cell lines as a group (mean AUC, Control.avg); assay type: cell-based
[5] = test system: six MCC cell lines and four control cell lines; assay: qHTS cell viability, all 10 cell lines screened; assay type: cell-based

CN(C)C(=O)Nc1ccc(Cl)c(Cl)c1 [Diuron]
Area under the dose-response curve (AUC) MCC13 Replicate 1 (MCC13 cells (VN-MCC)): 429.4
Area under the dose-response curve (AUC) MCC13 Replicate 2 (MCC13 cells (VN-MCC)): 471.6
Area under the dose-response curve (AUC) MCC13 Replicate 3 (MCC13 cells (VN-MCC)): 443.0
MCC13_AUC (MCC13 cells (VN-MCC)): 486.707
Area under the dose-response curve (AUC) MCC26 Replicate 1 (MCC26 cells (VN-MCC)): 419.4
Area under the dose-response curve (AUC) MCC26 Replicate 2 (MCC26 cells (VN-MCC)): 420.5
Area under the dose-response curve (AUC) MCC26 Replicate 3 (MCC26 cells (VN-MCC)): 426.9
MCC26_AUC (MCC26 cells (VN-MCC)): 462.009
Area under the dose-response curve (AUC) UISO Replicate 1 (UISO cells (VN-MCC)): 424.2
Area under the dose-response curve (AUC) UISO Replicate 2 (UISO cells (VN-MCC)): 442.5
Area under the dose-response curve (AUC) UISO Replicate 3 (UISO cells (VN-MCC)): 396.8
UISO_AUC (UISO cells (VN-MCC)): 432.63
Area under the dose-response curve (AUC) WAGA Replicate 1 (WAGA cells (VP-MCC)): 487.4
Area under the dose-response curve (AUC) WAGA Replicate 2 (WAGA cells (VP-MCC)): 506.5
Area under the dose-response curve (AUC) WAGA Replicate 3 (WAGA cells (VP-MCC)): 435.9
WAGA_AUC (WAGA cells (VP-MCC)): 128.39
Area under the dose-response curve (AUC) MKL-1 Replicate 1 (MKL-1 cells (VP-MCC)): 459.9
Area under the dose-response curve (AUC) MKL-1 Replicate 2 (MKL-1 cells (VP-MCC)): 477.0
Area under the dose-response curve (AUC) MKL-1 Replicate 3 (MKL-1 cells (VP-MCC)): 426.1
MKL1_AUC (MKL-1 cells (VP-MCC)): 165.013
Area under the dose-response curve (AUC) MKL-2 Replicate 1 (MKL-2 cells (VP-MCC)): 465.6
Area under the dose-response curve (AUC) MKL-2 Replicate 2 (MKL-2 cells (VP-MCC)): 447.9
Area under the dose-response curve (AUC) MKL-2 Replicate 3 (MKL-2 cells (VP-MCC)): 414.0
MKL2_AUC (MKL-2 cells (VP-MCC)): 290.674
HACAT_AUC (HACAT cells): 457.965
HEK293T_AUC (HEK293T cells): 497.019
NIH3T3_AUC (NIH-3T3 cells): 473.572
CRL7250_AUC (CRL-7250 cells): 483.042
MCC_Avg_AUC [1]: 327.57
Control-VP-MCC [2]: 283.207
VP-MCC_Avg_AUC [2]: 194.692
Control-VN-MCC [3]: 17.4511
VN-MCC_Avg_AUC [3]: 460.449
Control_Avg_AUC [4]: 477.9
Control-MCC [5]: 150.329

CC1=C(C)C(=O)C(CCCCC#CCCCC#CCO)=C(C)C1=O [Docebenone]
MCC13_AUC (MCC13 cells (VN-MCC); NPC library, qHTS dose-response AUC, MCC13): 444.208
MCC13_AUC (MCC13 cells (VN-MCC); area under the dose-response curve, MCC13 cells, AUC<450 = reduced viability): 444.208
MCC26_AUC (MCC26 cells (VN-MCC); NPC library, qHTS dose-response AUC, MCC26): 429.759
MCC26_AUC (MCC26 cells (VN-MCC); area under the dose-response curve, MCC26 cells, AUC<450 = reduced viability): 429.759
UISO_AUC (UISO cells (VN-MCC); NPC library, qHTS dose-response AUC, UISO): 433.913
UISO_AUC (UISO cells (VN-MCC); area under the dose-response curve, UISO cells, AUC<450 = reduced viability): 433.913
WAGA_AUC (WAGA cells (VP-MCC); NPC library, qHTS dose-response AUC, WAGA): 424.745
WAGA_AUC (WAGA cells (VP-MCC); area under the dose-response curve, WAGA cells, AUC<450 = reduced viability): 424.745
MKL1_AUC (MKL-1 cells (VP-MCC); NPC library, qHTS dose-response AUC, MKL1): 419.228
MKL1_AUC (MKL-1 cells (VP-MCC); {}): 419.228
MKL2_AUC (MKL-2 cells (VP-MCC); NPC library, qHTS dose-response AUC, MKL2): 406.862
MKL2_AUC (MKL-2 cells (VP-MCC); area under the dose-response curve, MKL-2 cells, AUC<450 = reduced viability): 406.862
HACAT_AUC (HACAT cells; NPC library, qHTS dose-response AUC, HACAT control): 486.31
HACAT_AUC (HACAT cells; area under the dose-response curve, HACAT control cells, AUC<450 = reduced viability): 486.31
HEK293T_AUC (HEK293T cells; NPC library, qHTS dose-response AUC, HEK293T control): 450.348
HEK293T_AUC (HEK293T cells; area under the dose-response curve, HEK293T control cells, AUC<450 = reduced viability): 450.348
NIH3T3_AUC (NIH-3T3 cells; NPC library, qHTS dose-response AUC, NIH3T3 control): 455.144
NIH3T3_AUC (NIH-3T3 cells; area under the dose-response curve, NIH3T3 control cells, AUC<450 = reduced viability): 455.144
CRL7250_AUC (CRL-7250 cells; NPC library, qHTS dose-response AUC, CRL7250 control): 490.119
CRL7250_AUC (CRL-7250 cells; area under the dose-response curve, CRL7250 control cells, AUC<450 = reduced viability): 490.119
MCC_Avg_AUC ([1]; NPC library, mean AUC of six MCC cell lines): 426.453
VP-MCC_Avg_AUC ([2]; NPC library, mean AUC of VP-MCC cell lines): 416.945
Control-VP-MCC ([2]; NPC library, therapeutic window: Control avg AUC minus VP-MCC avg AUC): 53.5349
VN-MCC_Avg_AUC ([3]; NPC library, mean AUC of VN-MCC cell lines): 435.96
Control-VN-MCC ([3]; NPC library, therapeutic window: Control avg AUC minus VN-MCC avg AUC): 34.5201
Control_Avg_AUC ([4]; NPC library, mean AUC of control cell lines): 470.48
Control-MCC ([5]; NPC library, therapeutic window: Control avg AUC minus MCC avg AUC): 44.0275

CCCCCCCCCCCC[N+](C)(C)CCOc1ccccc1 [Domiphen bromide]
MCC13_AUC (MCC13 cells (VN-MCC)): 479.965
MCC26_AUC (MCC26 cells (VN-MCC)): 403.074
UISO_AUC (UISO cells (VN-MCC)): 370.326
WAGA_AUC (WAGA cells (VP-MCC)): 371.251
MKL1_AUC (MKL-1 cells (VP-MCC)): 361.63
MKL2_AUC (MKL-2 cells (VP-MCC)): 321.555
HACAT_AUC (HACAT cells): 409.601
HEK293T_AUC (HEK293T cells): 413.225
NIH3T3_AUC (NIH-3T3 cells): 435.478
CRL7250_AUC (CRL-7250 cells): 449.796
MCC_Avg_AUC [1]: 384.634
Control-VP-MCC [2]: 75.5464
VP-MCC_Avg_AUC [2]: 351.479
Control-VN-MCC [3]: 9.236
VN-MCC_Avg_AUC [3]: 417.789
Control_Avg_AUC [4]: 427.025
Control-MCC [5]: 42.3914
